These results are taken from ChEMBL document CHEMBL1649074, “Aurora kinase inhibitors based on the imidazo[1,2-a]pyrazine core: fluorine and deuterium incorporation improve oral absorption and exposure” (J Med Chem, 2011).

Test [1] concerns the target Cyclin-dependent kinase 2 (Homo sapiens, UniProt P24941). The test is described as follows: Inhibition of CDK2.
For test [2], the target named is Insulin-like growth factor 1 receptor (Homo sapiens, UniProt P08069). The test is described as follows: Inhibition of IGF1R.
Test [3] concerns the target T1, Aurora kinase B (Homo sapiens, UniProt Q96GD4). Nature of the test: Inhibition of Aurora B.
For test [4], the target named is Rho-associated protein kinase 2 (Homo sapiens, UniProt O75116). Nature of the test: Inhibition of ROCK2.
Test [5] has as its target Casein kinase I isoform delta (Homo sapiens, UniProt P48730). Nature of the test: Inhibition of CSNK1D.
For test [6], the target named is T2, Receptor-type tyrosine-protein kinase FLT3 (Homo sapiens, UniProt P36888).
T2 sequence (P36888 whole entry): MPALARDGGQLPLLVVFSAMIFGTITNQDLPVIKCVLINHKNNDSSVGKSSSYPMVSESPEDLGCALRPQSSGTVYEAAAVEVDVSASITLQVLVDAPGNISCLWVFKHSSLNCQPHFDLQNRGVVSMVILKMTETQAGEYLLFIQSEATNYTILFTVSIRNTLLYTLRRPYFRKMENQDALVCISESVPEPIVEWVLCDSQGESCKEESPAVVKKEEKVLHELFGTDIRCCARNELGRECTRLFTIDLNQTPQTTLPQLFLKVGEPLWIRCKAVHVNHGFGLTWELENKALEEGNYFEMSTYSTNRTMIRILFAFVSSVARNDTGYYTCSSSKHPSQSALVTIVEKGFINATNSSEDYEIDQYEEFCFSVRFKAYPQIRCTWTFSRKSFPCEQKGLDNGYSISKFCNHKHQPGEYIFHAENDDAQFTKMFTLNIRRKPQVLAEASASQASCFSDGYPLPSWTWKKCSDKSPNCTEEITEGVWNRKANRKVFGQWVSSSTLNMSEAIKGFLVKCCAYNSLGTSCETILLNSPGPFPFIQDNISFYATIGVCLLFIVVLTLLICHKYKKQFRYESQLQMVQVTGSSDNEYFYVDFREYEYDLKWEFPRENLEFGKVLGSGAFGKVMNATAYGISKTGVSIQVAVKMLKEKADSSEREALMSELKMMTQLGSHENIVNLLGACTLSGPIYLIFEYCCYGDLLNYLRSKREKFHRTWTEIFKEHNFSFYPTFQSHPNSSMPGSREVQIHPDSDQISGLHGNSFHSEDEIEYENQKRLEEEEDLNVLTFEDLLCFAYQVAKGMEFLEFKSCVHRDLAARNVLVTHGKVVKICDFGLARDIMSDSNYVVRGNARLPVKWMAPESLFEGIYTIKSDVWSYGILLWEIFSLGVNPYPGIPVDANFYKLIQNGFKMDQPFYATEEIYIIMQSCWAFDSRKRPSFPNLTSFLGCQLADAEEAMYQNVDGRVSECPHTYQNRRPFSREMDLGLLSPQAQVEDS
Nature of the test: Inhibition of FLT3.

In test [7] the target is RAC-alpha serine/threonine-protein kinase (Homo sapiens, UniProt P31749). The test is described as follows: Inhibition of AKT1.
Test [8] concerns the target T1, Aurora kinase B. The test is described as follows: Inhibition of Aurora B in human HCT116 cells assessed as inhibition of histone H3 phosphorylation by immunofluorescence assay. In kind it is cell-based, HCT-116.
In test [9] the target is T3, Testis-specific serine/threonine-protein kinase 2 (Homo sapiens, UniProt Q96PF2).
T3 sequence (Q96PF2 whole entry): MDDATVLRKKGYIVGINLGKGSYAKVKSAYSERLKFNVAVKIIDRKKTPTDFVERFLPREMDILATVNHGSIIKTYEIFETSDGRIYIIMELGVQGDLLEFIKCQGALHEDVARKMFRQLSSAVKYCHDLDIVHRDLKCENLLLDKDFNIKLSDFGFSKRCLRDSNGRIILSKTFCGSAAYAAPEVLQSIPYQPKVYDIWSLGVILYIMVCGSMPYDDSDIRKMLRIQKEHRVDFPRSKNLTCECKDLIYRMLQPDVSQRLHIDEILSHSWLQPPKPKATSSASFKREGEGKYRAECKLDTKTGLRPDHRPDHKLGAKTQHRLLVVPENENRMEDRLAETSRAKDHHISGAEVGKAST
Nature of the test: Inhibition of TSSK2.

The target in test [10] is Hepatocyte growth factor receptor (Homo sapiens, UniProt P08581). The test is described as follows: Inhibition of MET.
Test [11] concerns the target T4, Serine/threonine-protein kinase Nek2 (Homo sapiens, UniProt P51955).
T4 sequence (P51955 whole entry): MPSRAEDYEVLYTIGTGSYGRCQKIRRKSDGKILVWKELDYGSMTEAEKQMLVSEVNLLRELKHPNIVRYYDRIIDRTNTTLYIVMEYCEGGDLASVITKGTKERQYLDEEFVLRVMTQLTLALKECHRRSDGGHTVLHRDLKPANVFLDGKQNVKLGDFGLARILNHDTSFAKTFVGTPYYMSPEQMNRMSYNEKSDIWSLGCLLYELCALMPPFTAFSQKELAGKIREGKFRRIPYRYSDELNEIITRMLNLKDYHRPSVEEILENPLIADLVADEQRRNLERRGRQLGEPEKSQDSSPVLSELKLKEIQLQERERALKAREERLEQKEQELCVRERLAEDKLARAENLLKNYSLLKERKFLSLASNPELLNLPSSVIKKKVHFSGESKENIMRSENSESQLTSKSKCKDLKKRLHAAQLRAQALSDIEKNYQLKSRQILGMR
Nature of the test: Inhibition of NEK2.

The target in test [12] is T5, Inhibitor of nuclear factor kappa-B kinase subunit beta (Homo sapiens, UniProt O14920).
T5 sequence (O14920 whole entry): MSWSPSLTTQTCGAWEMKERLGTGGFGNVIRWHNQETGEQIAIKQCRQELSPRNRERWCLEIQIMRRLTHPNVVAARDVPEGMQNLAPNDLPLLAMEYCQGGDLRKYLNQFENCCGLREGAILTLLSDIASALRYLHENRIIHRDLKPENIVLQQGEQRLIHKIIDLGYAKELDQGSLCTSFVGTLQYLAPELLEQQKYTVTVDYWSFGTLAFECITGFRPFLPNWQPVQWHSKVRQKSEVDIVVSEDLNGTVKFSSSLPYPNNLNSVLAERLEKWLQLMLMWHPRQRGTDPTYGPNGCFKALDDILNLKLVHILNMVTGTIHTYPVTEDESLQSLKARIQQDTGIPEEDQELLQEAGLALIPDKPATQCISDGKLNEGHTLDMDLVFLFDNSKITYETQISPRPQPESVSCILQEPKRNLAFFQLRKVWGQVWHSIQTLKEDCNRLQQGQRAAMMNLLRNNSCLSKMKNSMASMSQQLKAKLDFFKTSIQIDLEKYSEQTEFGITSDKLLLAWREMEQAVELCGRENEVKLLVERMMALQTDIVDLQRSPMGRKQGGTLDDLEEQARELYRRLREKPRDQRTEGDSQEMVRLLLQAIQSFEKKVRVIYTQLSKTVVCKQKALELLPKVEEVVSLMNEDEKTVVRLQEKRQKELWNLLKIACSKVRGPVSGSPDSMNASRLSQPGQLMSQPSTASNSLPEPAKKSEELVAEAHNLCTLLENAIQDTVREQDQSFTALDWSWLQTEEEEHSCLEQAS
The test is described as follows: Inhibition of IKK-beta.

pIC50: −log10 of the molar value.

Chain of Rho-associated protein kinase 2 (O75116 whole entry, canonical isoform): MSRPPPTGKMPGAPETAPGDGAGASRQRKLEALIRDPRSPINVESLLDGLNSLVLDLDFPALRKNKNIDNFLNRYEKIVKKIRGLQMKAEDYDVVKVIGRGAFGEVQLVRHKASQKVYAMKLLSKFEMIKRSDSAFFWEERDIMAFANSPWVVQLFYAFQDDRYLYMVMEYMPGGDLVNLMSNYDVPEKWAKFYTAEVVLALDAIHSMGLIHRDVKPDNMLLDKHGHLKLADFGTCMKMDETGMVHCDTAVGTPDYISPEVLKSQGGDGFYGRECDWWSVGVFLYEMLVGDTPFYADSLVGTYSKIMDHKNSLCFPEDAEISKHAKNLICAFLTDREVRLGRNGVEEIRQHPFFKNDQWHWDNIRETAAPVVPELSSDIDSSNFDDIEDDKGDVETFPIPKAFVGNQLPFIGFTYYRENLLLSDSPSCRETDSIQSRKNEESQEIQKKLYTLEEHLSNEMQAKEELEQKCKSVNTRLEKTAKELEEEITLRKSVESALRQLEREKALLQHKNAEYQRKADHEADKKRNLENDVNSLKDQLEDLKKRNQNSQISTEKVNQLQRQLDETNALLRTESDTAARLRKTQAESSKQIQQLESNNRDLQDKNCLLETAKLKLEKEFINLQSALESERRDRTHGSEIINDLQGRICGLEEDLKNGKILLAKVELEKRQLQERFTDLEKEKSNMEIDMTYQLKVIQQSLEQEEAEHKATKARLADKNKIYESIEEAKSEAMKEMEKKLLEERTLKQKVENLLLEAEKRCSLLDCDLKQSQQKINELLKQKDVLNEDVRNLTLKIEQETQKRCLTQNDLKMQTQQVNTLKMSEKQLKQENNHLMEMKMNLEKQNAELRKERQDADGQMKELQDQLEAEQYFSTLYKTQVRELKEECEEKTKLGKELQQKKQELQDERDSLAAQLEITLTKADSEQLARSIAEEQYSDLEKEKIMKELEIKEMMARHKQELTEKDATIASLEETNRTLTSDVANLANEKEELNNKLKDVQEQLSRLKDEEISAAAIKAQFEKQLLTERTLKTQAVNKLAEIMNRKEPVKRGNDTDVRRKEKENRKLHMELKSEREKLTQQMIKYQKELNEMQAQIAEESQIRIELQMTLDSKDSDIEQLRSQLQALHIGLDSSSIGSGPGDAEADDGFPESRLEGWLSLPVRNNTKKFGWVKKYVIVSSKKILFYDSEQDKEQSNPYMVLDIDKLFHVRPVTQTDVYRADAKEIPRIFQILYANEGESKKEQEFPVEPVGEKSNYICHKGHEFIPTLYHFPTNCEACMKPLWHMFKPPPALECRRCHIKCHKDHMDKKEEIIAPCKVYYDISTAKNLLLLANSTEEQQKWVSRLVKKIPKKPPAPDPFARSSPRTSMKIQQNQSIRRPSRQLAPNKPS
T1 sequence (Q96GD4 whole entry): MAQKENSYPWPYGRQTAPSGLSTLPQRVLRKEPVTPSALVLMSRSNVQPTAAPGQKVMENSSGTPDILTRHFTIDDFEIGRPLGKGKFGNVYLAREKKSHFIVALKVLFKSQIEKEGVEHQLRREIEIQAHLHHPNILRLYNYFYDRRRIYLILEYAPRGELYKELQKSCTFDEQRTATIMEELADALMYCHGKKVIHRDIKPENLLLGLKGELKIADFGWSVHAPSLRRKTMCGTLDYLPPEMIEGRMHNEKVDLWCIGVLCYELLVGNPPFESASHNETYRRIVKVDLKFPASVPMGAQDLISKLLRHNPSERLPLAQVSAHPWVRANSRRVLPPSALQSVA
Chain of Hepatocyte growth factor receptor (P08581 whole entry): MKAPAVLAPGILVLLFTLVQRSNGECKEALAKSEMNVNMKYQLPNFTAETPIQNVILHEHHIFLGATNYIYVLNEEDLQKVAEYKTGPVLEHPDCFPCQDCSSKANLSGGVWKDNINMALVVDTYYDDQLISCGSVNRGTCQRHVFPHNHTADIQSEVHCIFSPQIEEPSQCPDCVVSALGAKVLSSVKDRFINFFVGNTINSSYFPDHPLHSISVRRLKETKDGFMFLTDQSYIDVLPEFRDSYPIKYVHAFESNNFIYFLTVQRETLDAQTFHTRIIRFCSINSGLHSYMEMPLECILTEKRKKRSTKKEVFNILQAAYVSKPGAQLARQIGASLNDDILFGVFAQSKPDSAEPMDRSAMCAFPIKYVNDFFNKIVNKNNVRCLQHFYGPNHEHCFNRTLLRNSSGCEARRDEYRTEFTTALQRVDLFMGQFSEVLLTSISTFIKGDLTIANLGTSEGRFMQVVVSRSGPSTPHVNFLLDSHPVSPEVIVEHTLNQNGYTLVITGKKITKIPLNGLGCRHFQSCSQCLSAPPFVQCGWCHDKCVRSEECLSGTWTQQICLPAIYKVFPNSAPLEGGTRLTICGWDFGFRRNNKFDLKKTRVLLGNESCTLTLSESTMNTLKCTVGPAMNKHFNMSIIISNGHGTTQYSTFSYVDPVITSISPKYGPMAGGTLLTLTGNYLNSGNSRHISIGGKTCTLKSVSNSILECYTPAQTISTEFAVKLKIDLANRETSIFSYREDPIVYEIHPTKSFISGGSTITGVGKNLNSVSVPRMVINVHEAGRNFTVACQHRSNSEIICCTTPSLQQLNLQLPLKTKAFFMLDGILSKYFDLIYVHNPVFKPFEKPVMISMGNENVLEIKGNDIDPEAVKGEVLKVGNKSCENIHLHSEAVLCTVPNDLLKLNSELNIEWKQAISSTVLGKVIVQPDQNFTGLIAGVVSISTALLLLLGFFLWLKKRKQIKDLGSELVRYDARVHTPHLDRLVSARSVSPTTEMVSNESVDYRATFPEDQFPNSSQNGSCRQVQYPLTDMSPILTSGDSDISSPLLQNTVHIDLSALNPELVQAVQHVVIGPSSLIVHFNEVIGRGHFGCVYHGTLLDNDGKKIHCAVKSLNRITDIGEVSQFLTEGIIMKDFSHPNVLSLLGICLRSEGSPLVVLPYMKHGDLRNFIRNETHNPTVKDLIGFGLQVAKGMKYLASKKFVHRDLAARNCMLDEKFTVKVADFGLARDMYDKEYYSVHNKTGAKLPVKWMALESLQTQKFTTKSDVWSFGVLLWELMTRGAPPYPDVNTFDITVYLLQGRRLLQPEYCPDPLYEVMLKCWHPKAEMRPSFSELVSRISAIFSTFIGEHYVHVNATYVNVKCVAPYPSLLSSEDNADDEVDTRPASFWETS
Chain of Casein kinase I isoform delta (P48730 whole entry, canonical isoform): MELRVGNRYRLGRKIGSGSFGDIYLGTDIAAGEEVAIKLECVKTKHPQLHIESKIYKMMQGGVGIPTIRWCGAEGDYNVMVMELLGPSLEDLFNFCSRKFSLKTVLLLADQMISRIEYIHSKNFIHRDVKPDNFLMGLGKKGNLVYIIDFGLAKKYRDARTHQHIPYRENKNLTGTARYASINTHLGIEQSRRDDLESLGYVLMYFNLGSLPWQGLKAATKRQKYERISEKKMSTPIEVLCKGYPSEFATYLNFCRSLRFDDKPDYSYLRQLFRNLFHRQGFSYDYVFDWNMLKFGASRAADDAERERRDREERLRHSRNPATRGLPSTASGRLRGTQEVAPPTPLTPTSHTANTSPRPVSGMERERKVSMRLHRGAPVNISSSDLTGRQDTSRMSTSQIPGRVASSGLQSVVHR
Chain of RAC-alpha serine/threonine-protein kinase (P31749 whole entry): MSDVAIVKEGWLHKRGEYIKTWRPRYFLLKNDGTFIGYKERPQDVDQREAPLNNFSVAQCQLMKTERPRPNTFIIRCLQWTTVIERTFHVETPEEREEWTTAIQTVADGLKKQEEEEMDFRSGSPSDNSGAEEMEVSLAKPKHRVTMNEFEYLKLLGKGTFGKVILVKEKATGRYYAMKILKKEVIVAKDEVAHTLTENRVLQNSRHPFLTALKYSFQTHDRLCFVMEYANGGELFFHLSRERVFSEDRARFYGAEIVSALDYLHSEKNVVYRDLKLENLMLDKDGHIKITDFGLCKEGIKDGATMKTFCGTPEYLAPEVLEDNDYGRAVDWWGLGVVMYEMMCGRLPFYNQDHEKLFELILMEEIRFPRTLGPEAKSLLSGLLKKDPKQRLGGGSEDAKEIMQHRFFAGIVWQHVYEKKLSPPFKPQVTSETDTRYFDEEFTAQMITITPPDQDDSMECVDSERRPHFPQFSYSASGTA

Consider `CCN(Cc1cc(Nc2nc(C)cn3c(-c4cn[nH]c4)cnc23)sn1)C(C)(C)CO`, for which the pIC50 is less than 7.00 in test [1]; less than 7.00 in [2]; not below 7.89 against Aurora kinase B [3]; less than 7.00 in test [4]; less than 7.00 in test [5]; 8.30 in [6]. Also, the pIC50 in [7] was less than 7.00; at Aurora kinase B [8], 7.60; in [9] it was less than 7.00; in [10], less than 7.00; in test [11], less than 7.00; in [12] it was less than 7.00.
As to `Cc1cn2c(-c3cn[nH]c3)cnc2c(Nc2cc(CN3CCC(F)(F)C3)ns2)n1.Cl`, the pIC50 in [1] is less than 7.00; in [2] it was less than 7.00; against Aurora kinase B [3], not below 7.89; in [4], less than 7.00; in test [5] it was less than 7.00; in [6], 7.12. In addition, the pIC50 in [7] is less than 7.00; on Aurora kinase B [8], 7.04; in test [9] it was less than 7.00; in [10] it was less than 7.00; in [11], less than 7.00; in test [12], less than 7.00.
Consider `Cl.[2H]C([2H])(c1cc(Nc2nc(C)cn3c(-c4cn[nH]c4)cnc23)sn1)N1CCC(F)(F)C1`, for which the negative logarithm of the IC50 (pIC50) in test [1] is less than 7.00; in test [2], less than 7.00; against Aurora kinase B [3], not below 7.89; in test [4] it was less than 7.00; in test [5], less than 7.00; in test [6], 7.34. The pIC50 in test [7] is less than 7.00; on Aurora kinase B [8] it was 7.20; in test [9], less than 7.00; in test [10] it was less than 7.00; in test [11] it was less than 7.00; in [12], less than 7.00.

What is called pIC50 is −log10 of the IC50, conventionally taken in molar units.
